Results from US8178658B2 (Dow AgroSciences, LLC, priority 2008, dated 2012).

Assays:
[1] = tested on: beet armyworm (BAW; Spodoptera exigua: Lepidoptera); experiment: 128-well diet tray assay on beet armyworm (BAW 50); format: in vivo; settings: for BAW 50 ug/cm2: 128-well diet tray assay, 50 μg/cm^2 of test compound on diet, second instar BAW larvae, mortality class; for pest or weed control at 50 µg/cm2, 50 µg/cm2: Spodoptera exigua, 144 h, read-out: BAW 50 ug/cm2
Outline: (§1)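 Two diet formats. HTS: eggs on 96-well diet overlaid with 12 μg compound, held 6 d at 29° C in dark, mean mortality of six replicates. BAW 50: three to five second-instar larvae per well on diet dosed at 50 μg/cm^2, held six days at 25° C under 14:10 light-dark, mortality averaged across eight wells.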

[2] = tested on: beet armyworm (BAW; Spodoptera exigua: Lepidoptera); experiment: 96-well microtiter plate-based high throughput (HTS) diet bioassay on beet armyworm (BAW HTS); format: in vivo; settings: for BAW HTS: BAW eggs, 12 μg test compound per well, mortality at 6 d post-treatment, mortality class; for pest or weed control at 12 µg/well, 12 µg/well: Spodoptera exigua, 144 h, read-out: BAW HTS
Outline: as §1

[3] = 96-well microtiter plate HTS diet assay

Compound	BAW 50 ug/cm2 [1]	BAW HTS ([2]; 96-well HTS diet assay)	BAW HTS [2, 3]	pest or weed control at 50 µg/cm2, 50 µg/cm2 [1]	pest or weed control at 12 µg/well, 12 µg/well [2]
CCO[C@@H]1[C@@H](OC)[C@H](C)O[C@@H](OC(=O)Nc2ccc(-n3ccn(-c4ccc(OC(F)(F)F)cc4)c3=O)cc2)[C@@H]1OC [Compound 187]	A (the compound was tested and at least 50 percent mortality was observed)	A (the compound was tested and at least 50 percent mortality was observed)	A (the compound was tested and at least 50 percent mortality was observed)		
CCO[C@@H]1[C@@H](OC)[C@H](C)O[C@@H](OC(=O)Nc2ccc(N3CCN(c4ccc(OC(F)(F)F)cc4)C3=O)cc2)[C@@H]1OC [Compound 188]	A (the compound was tested and at least 50 percent mortality was observed)	B (either (1) the compound was tested and less than 50 percent mortality was observed or (2) the compound was not tested)	B (either (1) the compound was tested and less than 50 percent mortality was observed or (2) the compound was not tested)		
CO[C@@H]1[C@@H](OC)[C@H](C)O[C@@H](OC(=O)Nc2ccc(-n3cnc(-c4ccc(C(F)(F)F)cc4)n3)cc2Cl)[C@@H]1OC [Compound 189, {2-chloro-4-[3-(4-trifluoromethylphenyl)-[1,2,4]triazol-1-yl]-phenyl}-carbamic acid (2S,3R,4R,5S,6S)-3,4,5-trimethoxy-6-methyl-tetrahydropyran-2-yl ester]	A (the compound was tested and at least 50 percent mortality was observed)		A (the compound was tested and at least 50 percent mortality was observed)	> 50%	> 50%
CO[C@@H]1[C@@H](OC)[C@H](C)O[C@H](OC(=O)Nc2ccc(-n3cnc(-c4ccc(C(F)(F)F)cc4)n3)cc2Cl)[C@@H]1OC [Compound 190, {2-chloro-4-[3-(4-trifluoromethylphenyl)-[1,2,4]triazol-1-yl]-phenyl}-carbamic acid (2R,3R,4R,5S,6S)-3,4,5-trimethoxy-6-methyl-tetrahydropyran-2-yl ester]	A (the compound was tested and at least 50 percent mortality was observed)		A (the compound was tested and at least 50 percent mortality was observed)	> 50%	> 50%
CO[C@@H]1[C@@H](OC)[C@H](C)O[C@@H](OC(=O)Nc2ccc(-c3ncn(-c4ccc(OC(F)(F)F)cc4)n3)cc2)[C@@H]1OC [Compound 191, {4-[1-(4-trifluoromethoxyphenyl)-1H-[1,2,4]triazol-3-yl]-phenyl}-carbamic acid (2S,3R,4R,5S,6S)-3,4,5-trimethoxy-6-methyl-tetrahydropyran-2-yl ester]	A (the compound was tested and at least 50 percent mortality was observed)		A (the compound was tested and at least 50 percent mortality was observed)	> 50%	> 50%
CCO[C@@H]1[C@@H](OC)[C@H](C)O[C@@H](OC(=O)Nc2ccc(-c3ncn(-c4ccc(C(F)(F)F)cc4)n3)cc2)[C@@H]1OC [Compound 192]	A (the compound was tested and at least 50 percent mortality was observed)	A (the compound was tested and at least 50 percent mortality was observed)	A (the compound was tested and at least 50 percent mortality was observed)		
CCO[C@@H]1[C@@H](OC)[C@H](C)O[C@@H](OC(=O)Nc2ccc(-c3ncn(-c4ccc(OC(F)(F)F)cc4)n3)cc2)[C@@H]1OC [Compound 193]	A (the compound was tested and at least 50 percent mortality was observed)	B (either (1) the compound was tested and less than 50 percent mortality was observed or (2) the compound was not tested)	B (either (1) the compound was tested and less than 50 percent mortality was observed or (2) the compound was not tested)		
CO[C@@H]1[C@@H](OC)[C@H](C)O[C@@H](OC(=O)Nc2ccc(-c3nc(C)n(-c4ccc(OC(F)(F)F)cc4)n3)cc2)[C@@H]1OC [Compound 194]	A (the compound was tested and at least 50 percent mortality was observed)	A (the compound was tested and at least 50 percent mortality was observed)	A (the compound was tested and at least 50 percent mortality was observed)		
CO[C@@H]1[C@@H](OC)[C@H](C)O[C@H](OC(=O)Nc2ccc(-c3nc(C)n(-c4ccc(OC(F)(F)F)cc4)n3)cc2)[C@@H]1OC [Compound 195]	A (the compound was tested and at least 50 percent mortality was observed)	B (either (1) the compound was tested and less than 50 percent mortality was observed or (2) the compound was not tested)	B (either (1) the compound was tested and less than 50 percent mortality was observed or (2) the compound was not tested)		
CO[C@@H]1[C@@H](OC)[C@H](C)O[C@@H](OC(=O)Nc2ccc(-c3ncn(-c4ccc(Oc5ccc(Cl)cc5)cc4)n3)cc2)[C@@H]1OC [Compound 196]	A (the compound was tested and at least 50 percent mortality was observed)	A (the compound was tested and at least 50 percent mortality was observed)	A (the compound was tested and at least 50 percent mortality was observed)		
CCCCO[C@@H]1[C@@H](OC)[C@H](C)O[C@@H](OC(=O)Nc2ccc(-n3cnc(-c4ccc(C)cc4)n3)cc2)[C@@H]1OC [Compound 197]	A (the compound was tested and at least 50 percent mortality was observed)	A (the compound was tested and at least 50 percent mortality was observed)	A (the compound was tested and at least 50 percent mortality was observed)		
CCCCO[C@@H]1[C@@H](OC)[C@H](C)O[C@@H](OC(=O)Nc2ccc(-n3cnc(-c4ccc(C(F)(F)F)cc4)n3)cc2)[C@@H]1OC [Compound 198]	A (the compound was tested and at least 50 percent mortality was observed)	A (the compound was tested and at least 50 percent mortality was observed)	A (the compound was tested and at least 50 percent mortality was observed)		
CCCCO[C@@H]1[C@@H](OC)[C@H](C)O[C@H](OC(=O)Nc2ccc(-n3cnc(-c4ccc(C(F)(F)F)cc4)n3)cc2)[C@@H]1OC [Compound 199]	A (the compound was tested and at least 50 percent mortality was observed)	A (the compound was tested and at least 50 percent mortality was observed)	A (the compound was tested and at least 50 percent mortality was observed)		
CO[C@@H]1[C@@H](OC)[C@H](C)O[C@@H](OC(=O)Nc2ccc(-c3ncn(-c4ccc(OC(F)(F)C(F)(F)F)cc4)n3)cc2)[C@@H]1OC [Compound 200]	A (the compound was tested and at least 50 percent mortality was observed)	A (the compound was tested and at least 50 percent mortality was observed)	A (the compound was tested and at least 50 percent mortality was observed)		
CCO[C@@H]1[C@@H](OC)[C@H](C)O[C@@H](OC(=O)Nc2ccc(-c3ncn(-c4ccc(OC(F)(F)C(F)(F)F)cc4)n3)cc2)[C@@H]1OC [Compound 201, {4-[1-(4-pentafluoroethyloxyphenyl)-1H-[1,2,4]triazol-3-yl]-phenyl}-carbamic acid (2S,3R,4R,5S,6S)-4-ethoxy-3,5-dimethoxy-6-methyl-tetrahydropyran-2-yl ester]	A (the compound was tested and at least 50 percent mortality was observed)		A (the compound was tested and at least 50 percent mortality was observed)	> 50%	> 50%
CCO[C@@H]1[C@@H](OC)[C@H](C)O[C@H](OC(=O)Nc2ccc(-c3ncn(-c4ccc(OC(F)(F)C(F)(F)F)cc4)n3)cc2)[C@@H]1OC [Compound 202, {4-[1-(4-pentafluoroethyloxyphenyl)-1H-[1,2,4]triazol-3-yl]-phenyl}-carbamic acid (2R,3R,4R,5S,6S)-4-ethoxy-3,5-dimethoxy-6-methyl-tetrahydropyran-2-yl ester]	A (the compound was tested and at least 50 percent mortality was observed)		A (the compound was tested and at least 50 percent mortality was observed)	> 50%	> 50%
CCO[C@@H]1[C@@H](OC)[C@H](C)O[C@@H](OC(=S)Nc2ccc(-c3ncn(-c4ccc(OC(F)(F)C(F)(F)F)cc4)n3)cc2)[C@@H]1OC [Compound 203, {4-[1-(4-pentafluoroethyloxy-phenyl)-1H-[1,2,4]triazol-3-yl]-phenyl}-thiocarbamic acid (2S,3R,4R,5S,6S)-4-ethoxy-3,5-dimethoxy-6-methyl-tetrahydropyran-2-yl ester]	A (the compound was tested and at least 50 percent mortality was observed)		A (the compound was tested and at least 50 percent mortality was observed)	> 50%	> 50%
C=CCO[C@@H]1[C@@H](OC)[C@H](C)O[C@@H](OC(=O)Nc2ccc(-c3ncn(-c4ccc(OC(F)(F)C(F)(F)F)cc4)n3)cc2)[C@@H]1OC [Compound 204]	A (the compound was tested and at least 50 percent mortality was observed)	A (the compound was tested and at least 50 percent mortality was observed)	A (the compound was tested and at least 50 percent mortality was observed)		
